Consider 2 compounds from patent US20260365699A1, “Compound Production Method” (The University of Tokyo, priority 2022, published 2026).

*1 amine or outer side, *2 acyl side, *3 side chain or, on linkers, in order; H or OH if unused. Where a SMILES comes first, the peptide text is derived from it. Bridges are numbered along the chain shown (N, C = ends). X1 = C=C(N[*:2])c1nc(-c2nc(-c3nc(C(=O)OC)cs3)ccc2C(=O)[*:1])cs1 Some results are limits rather than exact numbers.

The target in one series is T1, TLR10 (Homo sapiens, UniProt Q9BXR5).
T1 sequence (Q9BXR5 20-811): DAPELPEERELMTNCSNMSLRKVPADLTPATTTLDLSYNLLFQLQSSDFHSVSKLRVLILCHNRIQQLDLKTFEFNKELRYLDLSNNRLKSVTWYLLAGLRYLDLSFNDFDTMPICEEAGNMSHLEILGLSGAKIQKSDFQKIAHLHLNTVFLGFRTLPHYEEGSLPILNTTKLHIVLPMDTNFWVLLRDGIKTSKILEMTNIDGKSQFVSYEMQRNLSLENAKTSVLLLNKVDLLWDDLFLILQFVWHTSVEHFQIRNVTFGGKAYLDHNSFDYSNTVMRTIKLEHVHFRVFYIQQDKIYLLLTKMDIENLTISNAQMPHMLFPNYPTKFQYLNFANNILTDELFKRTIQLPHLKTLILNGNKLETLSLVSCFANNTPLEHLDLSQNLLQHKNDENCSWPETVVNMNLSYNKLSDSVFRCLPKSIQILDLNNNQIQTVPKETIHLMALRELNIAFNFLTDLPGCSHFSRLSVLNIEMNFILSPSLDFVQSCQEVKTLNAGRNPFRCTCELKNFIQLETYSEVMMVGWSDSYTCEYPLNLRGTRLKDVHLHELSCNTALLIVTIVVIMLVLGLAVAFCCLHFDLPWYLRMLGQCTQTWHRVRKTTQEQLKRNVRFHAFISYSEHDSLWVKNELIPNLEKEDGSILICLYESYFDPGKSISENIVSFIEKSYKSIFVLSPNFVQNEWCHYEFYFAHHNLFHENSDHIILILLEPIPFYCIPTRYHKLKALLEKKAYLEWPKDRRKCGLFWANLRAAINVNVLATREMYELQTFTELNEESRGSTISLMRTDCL
The series can be described thus: Surface plasmon resonance (SPR) binding affinity to TLR10. As to the method: Next, the binding affinity of each of the synthesized thiopeptides (14 types excluding IR1-ct and IR15-ct in FIG. 8) to the target IRAK4 and TLR10 was examined using surface plasmon resonance (SPR). […] Next, using an ADP-Glo-based kinase inhibition assay, the IC50 values of 4 types of thiopeptides for IRAK4 excluding IR1-ct and IR15-ct were evaluated.
In general terms: SPR reads the build-up and loss of mass on a sensor chip optically.

Series [1] concerns the target T2, TNIK (Homo sapiens, UniProt Q9UKE5). The series can be described thus: Kinetic analysis (Lineweaver-Burk plots) of TNIK inhibition. In kind it is biochemical. To be noted: role: inhibitor.
In another series the test system is TNIK mRNA. The series can be described thus: TNIK mRNA level in HCT116 cells (RT-qPCR). In kind it is cell-based, human. As to the method: (§1) The sub-confluent HCT116 cells were treated with the indicated compounds for 24 hours and the cellular levels of TNIK, TNIK pSer764 (autophosphorylation product), c-Myc, and Axin2 were analyzed by an immunoblotting method (FIG. 7(b)) and RT-qPCR (FIG. 7(c)).
(In general: Real-time PCR tracks product formation cycle by cycle.)

A further series concerns AXIN2 mRNA. The series can be described thus: AXIN2 mRNA transcription in HCT116 cells (RT-qPCR). In kind it is cell-based, human. As to the method:
as §1

The next series deals with TNIK pSer764. The series can be described thus: Immunoblotting of TNIK pSer764 (TNIK autophosphorylation) in HCT116 cells. In kind it is cell-based, human. As for the experimental part: as §1
Nat. Commun. 2016, 7, 12586).

The subject of a further series is Axin2. The series can be described thus: Axin2 protein level in HCT116 cells (immunoblotting). In kind it is cell-based, human. To be noted: 20 μM, 24 hours. As to the method: as §1
In another series the target is T3, MST1 (Homo sapiens, UniProt Q13043).
T3 sequence (Q13043 1-487): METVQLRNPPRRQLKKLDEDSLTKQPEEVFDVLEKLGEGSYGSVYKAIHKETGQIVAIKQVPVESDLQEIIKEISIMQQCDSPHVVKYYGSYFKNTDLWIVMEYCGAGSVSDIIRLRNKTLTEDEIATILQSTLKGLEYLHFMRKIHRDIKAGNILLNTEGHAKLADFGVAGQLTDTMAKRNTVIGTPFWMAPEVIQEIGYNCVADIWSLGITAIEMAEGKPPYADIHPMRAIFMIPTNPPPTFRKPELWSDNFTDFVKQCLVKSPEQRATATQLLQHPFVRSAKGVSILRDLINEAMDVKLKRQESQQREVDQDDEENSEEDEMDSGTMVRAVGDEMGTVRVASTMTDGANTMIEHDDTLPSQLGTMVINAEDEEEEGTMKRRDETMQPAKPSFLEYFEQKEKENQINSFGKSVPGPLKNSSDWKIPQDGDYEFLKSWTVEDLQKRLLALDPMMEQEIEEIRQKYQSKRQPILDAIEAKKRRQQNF
The series can be described thus: Kinase selectivity profiling (MST1). In kind it is biochemical. The note with it: concentration of 1 μM. As for the experimental part:
(§2) Next, a kinase selectivity profiling experiment was carried out using a panel of various human kinases.

A further series relates to MYC mRNA. The series can be described thus: MYC mRNA transcription in HCT116 cells (RT-qPCR). In kind it is cell-based, human. As to the method: as §1
A further series relates to c-Myc. The series can be described thus: c-Myc protein level in HCT116 cells (immunoblotting). In kind it is cell-based, human. To be noted: 20 μM, 24 hours. As for the experimental part: as §1
(In western blotting, separated proteins are transferred to a membrane and probed.)

For the next series, the target named is LOK (Homo sapiens, UniProt O94804). The series can be described thus: Kinase selectivity profiling (LOK). In kind it is biochemical. The note with it: concentration of 1 μM. As to the method:
as §2

The nature of series [2]: Metabolic stability in human serum (LC/MS). In kind it is in vitro ADME. To be noted: 37 °C. As to the method: The compounds were incubated with a human serum at 37 °C, and the amount of the residual test substance at various points in time was quantified by LC/MS with respect to an internal standard substance. […] Next, it was examined whether or not the half-lives of the compounds were affected by the reactivity of the Dha residue. The Dha residue may be conjugated with various serum thiols.
In addition, the metabolic stability of all of the 14 types of candidate thiopeptides was examined. The compound was incubated with the human serum at 37 °C, and the amount of the residual thiopeptide at various points in time was quantified by LC/MS with respect to the internal standard substance. The half-life of the thiopeptide for TLR10 was generally as long as 38.2 hours, and the thiopeptide was stable.

The target in series [3] is T2, TNIK. The series can be described thus: Surface plasmon resonance (SPR) binding affinity to TNIK. The note with it: saturated concentration of ATP (1 mM; 15-fold higher than KM). An excerpt: Surface plasmon resonance (SPR) was used to evaluate the binding affinity of the thiopeptide synthesized in Example 2 to TNIK.
Series [4] deals with TNIK. The series can be described thus: TNIK protein level in HCT116 cells (immunoblotting). In kind it is cell-based, human. As to the method:
as §1

Series [5] in a line: Stability / reactivity towards glutathione (GSH), LC/MS. In kind it is physicochemical.
In a further series the test system is HEK293H cells. The series can be described thus: Chloroalkane penetration assay (CAPA) in HEK293H cells. In kind it is cell-based, human. The note with it: chloroalkane-labeled derivatives. As for the experimental part: as §1
Next, it was confirmed whether or not the obtained compound could also access an intracellular target protein (TNIK is localized in the cytoplasm and the cell nucleus) in a human cell model. First, a chloroalkane penetration assay (CAPA) was performed on 4 types (TP1-ct, TP8-ct, TP14-ct, and TP15-ct) out of the 6 types of chloroalkane-labeled thiopeptide derivatives shown in FIG. 5 in order to measure an uptake degree into the cytoplasm (Peraro, L.; Deprey, K. L.; Moser, M. K.; Zou, Z.; Ball, H. L.; Levine, B.; and Kritzer, J. A. Cell Penetration Profiling Using the Chloroalkane Penetration Assay. J. Am. Chem. Soc. 2018, 140, 11360-11369).

T2 sequence (Q9UKE5 whole entry): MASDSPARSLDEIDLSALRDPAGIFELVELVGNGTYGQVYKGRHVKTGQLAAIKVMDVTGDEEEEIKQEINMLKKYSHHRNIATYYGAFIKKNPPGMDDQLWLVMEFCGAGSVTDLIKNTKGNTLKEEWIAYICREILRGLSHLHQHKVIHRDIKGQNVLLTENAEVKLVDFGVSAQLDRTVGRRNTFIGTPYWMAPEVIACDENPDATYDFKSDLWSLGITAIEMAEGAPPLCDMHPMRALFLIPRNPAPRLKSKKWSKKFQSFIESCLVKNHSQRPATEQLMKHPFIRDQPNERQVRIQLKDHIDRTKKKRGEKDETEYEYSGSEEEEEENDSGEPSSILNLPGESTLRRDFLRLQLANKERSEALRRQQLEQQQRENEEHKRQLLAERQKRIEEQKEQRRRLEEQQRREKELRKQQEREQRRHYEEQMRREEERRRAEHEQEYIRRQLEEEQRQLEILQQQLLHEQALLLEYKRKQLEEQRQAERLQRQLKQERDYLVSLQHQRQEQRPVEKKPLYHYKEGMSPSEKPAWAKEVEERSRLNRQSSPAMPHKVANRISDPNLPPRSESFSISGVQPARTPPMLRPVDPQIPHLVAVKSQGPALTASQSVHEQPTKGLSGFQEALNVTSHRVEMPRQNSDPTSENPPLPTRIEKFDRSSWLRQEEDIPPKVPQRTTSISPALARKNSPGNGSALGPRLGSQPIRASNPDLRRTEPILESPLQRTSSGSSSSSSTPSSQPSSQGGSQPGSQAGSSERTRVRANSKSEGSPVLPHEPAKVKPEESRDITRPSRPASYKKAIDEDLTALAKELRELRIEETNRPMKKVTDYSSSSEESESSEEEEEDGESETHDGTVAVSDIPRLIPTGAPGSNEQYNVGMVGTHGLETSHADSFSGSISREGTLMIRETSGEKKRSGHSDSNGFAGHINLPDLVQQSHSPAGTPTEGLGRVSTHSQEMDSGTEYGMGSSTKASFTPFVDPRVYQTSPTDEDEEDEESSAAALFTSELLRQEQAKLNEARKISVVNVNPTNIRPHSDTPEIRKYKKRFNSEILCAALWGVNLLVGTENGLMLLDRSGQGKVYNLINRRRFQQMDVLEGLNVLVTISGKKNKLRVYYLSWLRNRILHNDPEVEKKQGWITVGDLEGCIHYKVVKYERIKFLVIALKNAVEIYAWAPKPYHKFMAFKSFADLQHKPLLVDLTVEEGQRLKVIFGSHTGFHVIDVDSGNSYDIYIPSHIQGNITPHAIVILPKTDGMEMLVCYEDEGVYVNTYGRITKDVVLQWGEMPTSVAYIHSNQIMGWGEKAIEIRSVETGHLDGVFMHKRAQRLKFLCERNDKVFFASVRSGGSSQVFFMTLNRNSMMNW
LOK, sequence (O94804 whole entry): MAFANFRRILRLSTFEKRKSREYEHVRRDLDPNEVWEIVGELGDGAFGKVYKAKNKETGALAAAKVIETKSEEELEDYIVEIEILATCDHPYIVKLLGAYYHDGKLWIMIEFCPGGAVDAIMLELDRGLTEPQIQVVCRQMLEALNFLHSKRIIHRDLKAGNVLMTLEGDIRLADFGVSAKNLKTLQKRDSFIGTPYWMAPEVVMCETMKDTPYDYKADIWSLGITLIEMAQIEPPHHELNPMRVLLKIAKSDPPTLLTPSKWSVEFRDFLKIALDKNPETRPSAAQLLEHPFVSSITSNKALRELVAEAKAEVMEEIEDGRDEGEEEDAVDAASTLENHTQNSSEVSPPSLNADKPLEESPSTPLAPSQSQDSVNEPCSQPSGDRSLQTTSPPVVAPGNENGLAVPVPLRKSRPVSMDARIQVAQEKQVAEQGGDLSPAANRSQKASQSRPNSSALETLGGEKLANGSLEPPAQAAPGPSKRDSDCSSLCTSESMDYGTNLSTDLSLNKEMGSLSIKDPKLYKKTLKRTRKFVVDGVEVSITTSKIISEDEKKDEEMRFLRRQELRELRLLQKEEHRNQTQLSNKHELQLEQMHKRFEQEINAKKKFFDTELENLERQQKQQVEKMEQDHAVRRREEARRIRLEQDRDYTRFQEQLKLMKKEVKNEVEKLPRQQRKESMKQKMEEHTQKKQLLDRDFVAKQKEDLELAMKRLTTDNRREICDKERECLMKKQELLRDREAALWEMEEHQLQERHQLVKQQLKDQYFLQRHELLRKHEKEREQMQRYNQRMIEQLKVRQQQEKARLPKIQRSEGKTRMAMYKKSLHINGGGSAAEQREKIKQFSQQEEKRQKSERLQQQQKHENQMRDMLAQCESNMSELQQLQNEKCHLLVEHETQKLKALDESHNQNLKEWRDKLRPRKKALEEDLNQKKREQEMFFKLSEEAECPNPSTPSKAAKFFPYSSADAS

The Kd is the equilibrium constant for the complex coming apart. A high value points to lower affinity. The compound `C=C1NC(=O)[C@H](Cc2c[nH]cn2)NC(=O)[C@H]([C@@H](C)CC)NC(=O)[C@H](C(C)C)NC(=O)[C@H](C(C)C)NC(=O)[C@H](CC(N)=O)NC(=O)[C@H](C(C)C)NC(=O)[C@H](CCCNC(=N)N)NC(=O)[C@H](CO)NC(=O)[C@H](CC(C)C)NC(=O)[C@H](CCC(=O)O)NC(=O)[C@H](CC(C)C)NC(=O)[C@H](CO)NC(=O)[C@H](Cc2c[nH]c3ccccc23)NC(=O)c2ccc(-c3nc(C(=O)OC)cs3)nc2-c2csc1n2` [TL7] (WSLELSRVNVVIH; linker N-C via X1) returned a dissociation constant Kd at TLR10 of 306 nM.
On to `C=C1NC(=O)c2csc(n2)[C@H]([C@@H](C)O)NC(=O)[C@H](C)NC(=O)[C@H]([C@@H](C)CC)NC(=O)[C@H](CCCNC(=N)N)NC(=O)CNC(=O)[C@H](CCCNC(=N)N)NC(=O)[C@H]([C@@H](C)O)NC(=O)[C@H](CCCNC(=N)N)NC(=O)[C@H]([C@@H](C)CC)NC(=O)[C@H]([C@@H](C)O)NC(=O)[C@H](Cc2c[nH]c3ccccc23)NC(=O)c2ccc(-c3nc(C(=O)OC)cs3)nc2-c2csc1n2` [TP15], for which the “mode of TNIK inhibition” value on TNIK [1] is “substrate competitive inhibitor”. Moreover, the “overall expression of TNIK, mRNA level” value in the series with TNIK mRNA is “not TP15”. Further, in the series on AXIN2 mRNA, the “transcription of AXIN2 mRNA” value is “suppressed in a concentration-dependent manner”. The “level of TNIK pSer764” value in the series with TNIK pSer764 (20 μM of TP15, 24 hours, immunoblotting) is listed as “decreased”. Further, the “TNIK autophosphorylation, in words (figure legend)” value with TNIK pSer764 (24 hours) is recorded as “inhibition of TNIK autophosphorylation”. Further, the “protein level of Axin2” value in the series with Axin2 is listed as “decreased”. At MST1, the “inhibition of MST1” value is “inhibited”. Also, the “transcription of MYC mRNA” value in the series with MYC mRNA was “suppressed in a concentration-dependent manner”. For the same compound, the “protein level of c-Myc” value in the series with c-Myc was “decreased”. Also, the “inhibition of LOK” value against LOK is “inhibited”. Also, the “stability in human serum, in words” value in series [2] is “short half-life”. For the same compound, at TNIK [3], the “binding to TNIK in the presence of ATP” value is reported as “bonded to TNIK in the presence of the saturated concentration of ATP”. In the series with TNIK [4], the “overall expression of TNIK, protein level” value is “not TP15”. For the same compound, in series [5] (10 mM GSH, after 24 hours), the “residual amount in the presence of GSH” value is > 95%. For the same compound, the “reactivity with GSH, in words” value in series [5] (increasing concentration of glutathione (GSH)) is “stable”. The “cytoplasmic uptake (CAPA), in words” value with HEK293H cells was “efficient cytoplasmic translocation”.
